Measured values taken from article PMC4268712, “Steroidal and non-steroidal third-generation aromatase inhibitors induce pain-like symptoms via TRPA1” (Nature Communications, 2014).

Legend:
[1] = target: T1, transient receptor potential ankyrin 1 (TRPA1) (Homo sapiens, UniProt O75762); test: calcium imaging (and whole-cell patch clamp) in hTRPA1-HEK293 cells, blocked by HC-030031, absent in untransfected cells; format: cell-based
[2] = target: T1, transient receptor potential ankyrin 1 (TRPA1); test: calcium imaging in HEK293 cells transfected with wild-type hTRPA1 ([…]); format: cell-based

T1 sequence (O75762 whole entry): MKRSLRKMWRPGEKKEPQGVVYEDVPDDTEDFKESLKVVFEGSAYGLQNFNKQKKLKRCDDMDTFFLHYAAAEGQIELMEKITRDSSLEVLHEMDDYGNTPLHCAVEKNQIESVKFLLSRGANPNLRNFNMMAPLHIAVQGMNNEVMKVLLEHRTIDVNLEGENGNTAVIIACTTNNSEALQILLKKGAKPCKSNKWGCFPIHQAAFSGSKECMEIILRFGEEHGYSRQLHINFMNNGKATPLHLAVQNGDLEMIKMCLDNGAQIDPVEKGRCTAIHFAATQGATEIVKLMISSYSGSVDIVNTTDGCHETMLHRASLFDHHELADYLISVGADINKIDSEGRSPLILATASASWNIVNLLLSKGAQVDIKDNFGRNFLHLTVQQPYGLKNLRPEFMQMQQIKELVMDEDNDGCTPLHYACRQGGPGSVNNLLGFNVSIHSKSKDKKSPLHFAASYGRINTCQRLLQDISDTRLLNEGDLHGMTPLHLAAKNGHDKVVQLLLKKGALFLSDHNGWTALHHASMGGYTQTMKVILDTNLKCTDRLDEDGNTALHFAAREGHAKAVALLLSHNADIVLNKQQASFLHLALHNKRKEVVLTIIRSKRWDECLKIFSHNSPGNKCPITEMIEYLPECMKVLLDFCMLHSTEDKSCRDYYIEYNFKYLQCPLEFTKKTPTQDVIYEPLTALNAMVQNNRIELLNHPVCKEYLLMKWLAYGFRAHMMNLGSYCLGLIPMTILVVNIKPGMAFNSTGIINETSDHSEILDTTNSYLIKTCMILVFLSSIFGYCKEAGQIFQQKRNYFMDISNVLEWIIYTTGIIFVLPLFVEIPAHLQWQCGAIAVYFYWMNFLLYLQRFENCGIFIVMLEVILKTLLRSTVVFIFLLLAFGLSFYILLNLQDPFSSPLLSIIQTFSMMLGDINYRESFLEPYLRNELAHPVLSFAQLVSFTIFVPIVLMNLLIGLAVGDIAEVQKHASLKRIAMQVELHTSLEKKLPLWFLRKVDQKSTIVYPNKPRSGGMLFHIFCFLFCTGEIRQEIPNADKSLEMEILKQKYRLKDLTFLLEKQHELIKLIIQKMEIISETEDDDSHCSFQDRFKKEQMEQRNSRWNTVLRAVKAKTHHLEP

Compound | EC50 [1] [µM] | calcium imaging in HEK293 cells transfected with wild-type hTRPA1 (100 μM) [2]
CC(C)(C#N)c1cc(Cn2cncn2)cc(C(C)(C)C#N)c1 [ANA, anastrozole] | 134 | 
C=C1C[C@@H]2[C@H](CC[C@]3(C)C(=O)CC[C@@H]23)[C@@]2(C)C=CC(=O)C=C12 [EXE, exemestane] | 58 | 
N#Cc1ccc(C(c2ccc(C#N)cc2)n2cncn2)cc1 [LTZ, letrozole] | 69 | 
CC1CCC(C(C)C)C(O)C1 (stereo not shown) [menthol] |  | HEK293 cells transfected with the cDNA codifying for wild-type hTRPA1 (WT) respond to all the drugs
